Measured values taken from patent publication US20180064687A1, “PHARMACEUTICAL COMPOSITION FOR THE PREVENTION AND TREATMENT OF DISEASES ASSOCIATED WITH ELEVATED INDUCIBLE NITRIC OXIDE SYNTHASE” (AKCIJU SABIEDRIBA "OLAINFARM', priority 2015, published 2018).
Entries after “also recorded” stand apart in the source; their conditions may differ. Structures can show the parent of a compound that is named as a salt.

How the values were obtained:
[1] = tested on: formalin-induced nociceptive responses; details: cited from earlier work; for nociceptive responses to formalin-produced peripheral neuropathy: systemic and intrathecal administration, mice and rats
iNOS gene expression = experiment: LPS-induced iNOS gene overexpression in brain tissue, septic shock model (quantitative RT-PCR); type: in vivo; details: mice; 50 mg/kg injected simultaneously with LPS 20 mg/kg i.p.; tissue sampled 6 h after; compared with LPS group
Protocol: (§1) Male ICR mice weighing 25-30 g were obtained from the Laboratory of Experimental Animals, Riga Stradins University (Riga, Latvia), and housed under standard conditions (21-23° C., relative humidity 65%±10%, 12 h light-dark cycle) with unlimited access to standard food (R70 diet, Lactamin AB, Sweden) and water. The experimental procedures were performed in accordance with the guidelines reported in EU Directive 2010/63/EU and in accordance with local laws and policies; all of the procedures were approved by the Latvian Animal Protection Ethical Committee of Food and Veterinary Service in Riga, Latvia. To eliminate systematic differences between the treatment groups, the animals were randomly assigned to their respective experimental groups (12 animals in each group for formalin test and 6 animals in each group for LPS test). To avoid subjective factors in the rating process, all experimental procedures were performed in a blinded fashion.
The iNOS gene expression was stimulated by a single intraperitoneal (i.p.) injection of LPS at a dose of 20 mg/kg 6 h before the tissue sampling. Control animals received i.p. injection of saline (0.9% NaCl). […]
Brain tissue after sampling were immediately frozen in liquid nitrogen and stored at −80° C. […] Samples were diluted with water at v/v ratio of 1:20 and the quality and quantity of extracted total RNA were examined by measuring the absorbance at 230, 260 and 280 nm with a μQuant™ (BioTek) spectrophotometer. […] Quantitative RT-PCR analysis for iNOS was performed by mixing synthesized cDNA (diluted with water at v/v ratio of 1:10), appropriate primers, and SYBR® Green Master Mix (Applied Biosystems™, USA) and run in the Applied Biosystems Prism 7500 according to the manufacturer's protocol. The transcript levels for the constitutive housekeeping gene product β-actin were quantitatively measured for each sample, and PCR data were reported as the number of transcripts per number of β-actin mRNA molecules.

NOS = details: patients with septic shock, cited from earlier work
LPS-induced hypothermia = LPS-induced hypothermia (rectal temperature), septic shock model; type: in vivo; details: mice; 50 mg/kg i.p. simultaneously with LPS 20 mg/kg; 6 h after injection
Protocol: as §1
The hypothermia was induced by an i.p. injection of LPS at a dose of 20 mg/kg. Control animals received i.p. injection of saline (0.9% NaCl). […] The rectal temperature of animals was measured using a thermometer (Thermalert TH-5, USA) at 5 min before LPS or saline injection and 6 hours after injection.

[2] = i.p. administration; cited from earlier work
[3] = in vivo; cited from earlier work
[4] = tested on: formalin-induced paw licking; experiment: Formalin-induced paw licking test (formalin-induced peripheral neuropathy); type: in vivo; details: mice, pre-treatment 50 mg/kg
Protocol: as §1
Formalin-induced licking paw test was performed as described previously by Zvejniece et al 2006 (Zvejniece L., Muceniece R., Krigere L., Dambrova M., Klusa V. Z. Pharmacol. Biochem. Behav. 2006, 85 (2),287-91). Briefly, mice were gently restrained and 30 μl of formalin solution (1.5% in saline) was injected s.c. into the plantar surface of the right hind paw, using a microsyringe with a 27-gauge needle. Each mouse was then placed in an individual clear Plexiglas observation chamber (30×20×30 cm) and the total licking time of hind paw of each mouse was registered and quantified in subsequent 5-minute intervals for 50 minutes. The recording of licking time started immediately (first phase) and lasted for 5 min. The late phase (second phase) started about 15-20 min after formalin injection and lasted up to 35 min.

[5] = phase II, compared to saline treated group

In the case of N=C(N)NN [aminoguanidine hydrochloride], the “peripheral nociception in formalin-induced paw licking test II phase” value (“peripheral nociception” below) [1] is given as “reduce peripheral nociception”.
With NC(=O)CN1C[C@H](c2ccccc2)CC1=O [(4S)-2-(4-phenyl-2-oxopyrrolidin-1-yl)acetamide] the “LPS-induced iNOS gene expression in brain tissue” value (“LPS-induced iNOS gene expression” below) (iNOS gene expression) was “absolutely inactive; also recorded: did not reduce”.
For CC(C)C[C@H](CN)CC(=O)O [pregabalin], the “peripheral nociception” value [1] is listed as “anti-nociceptive activity”.
In the case of O=[N+]([O-])c1cccc2cn[nH]c12 [7-nitroindazole], the “nociceptive responses to formalin-produced peripheral neuropathy” value [1] is given as “reduces nociceptive responses”.
For COC(=O)[C@@H](N)CCCNC(=N)N[N+](=O)[O-] [L-NAME, Nω-nitro-L-arginine methyl ester], the “nociceptive responses to formalin-produced peripheral neuropathy” value [1] is given as “reduces nociceptive responses”, the “results of the phase II trial in septic shock” value (NOS; placebo-controlled double-blind study) is given as “promising” and the “mortality in the treatment group, phase III trial” value (NOS; trial terminated prematurely) is given as “increase in mortality”.
For N#Cc1ccc(C(=O)N2CCC3(CC2)N=C(N)c2c(F)ccc(F)c2N3)cn1 [AR-C102222], the “peripheral nociception” value [1] is given as “reduce peripheral nociception”.
For NC(=O)CN1C[C@@H](c2ccccc2)CC1=O [(4R)-2-(4-phenyl-2-oxopyrrolidin-1-yl)acetamide], the “LPS-induced hypothermia (rectal temperature)” value (LPS-induced hypothermia) is given as “significantly inhibited”, the “dose up to which no side effects on the body system are caused” value [2] is given as no more than 250 mg/kg and the “LPS-induced iNOS gene expression” value (iNOS gene expression) is given as “highly effective; also recorded: significantly reduced”. The excretion from body [3] was “totally excreted from body in unmetabolized form”, the “reduction of the paw licking behavior in phase II” value ([4]; phase II) was 46% and the “paw licking response time in II phase” value [4, 5] was “significant inhibition”.
In the case of NC(=O)CN1CC(c2ccccc2)CC1=O [(4R,S)-2-(4-phenyl-2-oxopyrrolidin-1-yl)acetamide], the “LPS-induced iNOS gene expression” value (iNOS gene expression) is reported as “tendency to reduce LPS action; also recorded: did not reduce”, the “paw-licking time in I phase” value ([4]; phase I, compared to saline treated group) is reported as “did not reduce; also recorded: almost no effect” and the “paw licking response time in II phase” value [4, 5] is reported as “did not reduce; also recorded: almost no effect”.
In the case of NCC1(CC(=O)O)CCCCC1 [gabapentin], the “peripheral nociception” value [1] is listed as “anti-nociceptive activity”.
For CN(C)CCC=C1c2ccccc2CCc2ccccc21 [amitriptyline], the “peripheral nociception” value [1] is given as “anti-nociceptive activity”.
